Reference: patent publication US20240174690A1, “ANNULATED 2-AMINO-3-CYANO THIOPHENES AND DERIVATIVES FOR THE TREATMENT OF CANCER” (BOEHRINGER INGELHEIM INTERNATIONAL GMBH, priority 2021, published 2024)

Tests used:
[1] = Caco-2 assay (permeability PappAB, PappBA, efflux ratio); assay type: in vitro ADME; conditions: human, Caco-2, 10 μM test compound, pH 7.4; for Papp A→B at 90 min, 10 μM: apical to basolateral; for efflux ratio at 90 min, 10 μM: efflux ratio PappBA/PappAB, read-out: Caco ER
From the text: The assay provides information on the potential of a compound to pass the cell membrane, on the extent of oral absorption as well as on whether the compound is actively transported by uptake and/or efflux transporters. Permeability measurements across polarized, confluent Caco-2 cell monolayers grown on permeable filter supports (Corning, catalog #3391) are used. […] The receiver and donor compartments contain 0.25% bovine serum albumine (BSA) in assay buffer. Passive diffusion and/or active transport of compounds across the monolayer is measured in both apical to basolateral (a-b) and basolateral to apical (b-a) direction. a-b permeability (PappAB) represents drug absorption from the intestine into the blood and b-a permeability (PappBA) drug secretion from the blood back into the intestine via both passive permeability as well as active transport mechanisms mediated by efflux and uptake transporters that are expressed on the Caco-2 cells. After a pre-incubation of 25-30 min at 37° C., at predefined time points (0, 30, 60 and 90 min), samples were taken from the receiver and donor compartment, respectively. Concentrations of test compounds in samples were measured by HPLC/MS/MS, samples from the donor compartment were diluted 1:50 (v:v) with assay buffer, samples from receiver compartment were measured without dilution.
Apparent permeabilities in a-b (PappAB) and b-a (PappBA) directions are calculated according to the formula:
[formula] • Vrec [mL]: buffer volume in receiver compartment • Cdon [μmol/mL]: concentration of test compound in donor compartment at t=0 • ΔCrec: difference between concentrations of test compound in receiver compartment at start and end of incubation time • Δt: Incubation time • Vrec·ΔCrec/Δt [μmol/min]: Amount of compound transferred to receiver compartment per time • A [cm^2]: filter surface
Caco-2 efflux ratios (ER) are calculated as the ratio of PappBA/PappAB.

[2] = system: KRAS G12C-dependent Ba/F3 cells; assay: Ba/F3 proliferation assay, KRAS G12C; assay type: cell-based; conditions: Mus musculus, BaF3, 72 h, AlamarBlue
Description: Plasmids containing KRASG12 mutants (i.e. […], G12C, G12V) are obtained from GeneScript. To generate KRASG12-dependent Ba/F3 models, Ba/F3 cells are transduced with retroviruses containing vectors that harbor KRASG12 isoforms. Platinum-E cells (Cell Biolabs) are used for retrovirus packaging. Retrovirus is added to Ba/F3 cells. To ensure infection, 4 μg/mL polybrene is added and cells are spinfected. […] Cells with an infection efficiency of 10% to 20% are further cultivated and puromycin selection with 1 μg/mL is initiated. As a control, parental Ba/F3 cells are used to show selection status. Selection is considered successful when parental Ba/F3 cells cultures died. To evaluate the transforming potential of KRASG12 mutations, the growth medium is no longer supplemented with IL-3. Ba/F3 cells harboring the empty vector are used as a control. Approximately ten days before conducting the experiments, puromycin is left out.
Compounds are added using an Access Labcyte Workstation with a Labcyte Echo 550 or 555 accoustic dispenser. All treatments are performed in technical duplicates. […] AlamarBlue™ (ThermoFisher), a viability stain, is added and fluorescence measured in the PerkinElmer Envision HTS Multilabel Reader. The raw data are imported into and analyzed with the Boehringer Ingelheim proprietary software MegaLab (curve fitting based on the program PRISM, GraphPad Inc.).

[3] = target: CYP3A4 (Homo sapiens (Human), UniProt P08684); assay: Mechanism based inhibition of CYP3A4 assay (MBI 3A4); assay type: in vitro ADME; conditions: hydroxy-midazolam formation after 30 min vs 0 min preincubation, 25 uM, human liver microsomes
CYP3A4, sequence (P08684 whole entry): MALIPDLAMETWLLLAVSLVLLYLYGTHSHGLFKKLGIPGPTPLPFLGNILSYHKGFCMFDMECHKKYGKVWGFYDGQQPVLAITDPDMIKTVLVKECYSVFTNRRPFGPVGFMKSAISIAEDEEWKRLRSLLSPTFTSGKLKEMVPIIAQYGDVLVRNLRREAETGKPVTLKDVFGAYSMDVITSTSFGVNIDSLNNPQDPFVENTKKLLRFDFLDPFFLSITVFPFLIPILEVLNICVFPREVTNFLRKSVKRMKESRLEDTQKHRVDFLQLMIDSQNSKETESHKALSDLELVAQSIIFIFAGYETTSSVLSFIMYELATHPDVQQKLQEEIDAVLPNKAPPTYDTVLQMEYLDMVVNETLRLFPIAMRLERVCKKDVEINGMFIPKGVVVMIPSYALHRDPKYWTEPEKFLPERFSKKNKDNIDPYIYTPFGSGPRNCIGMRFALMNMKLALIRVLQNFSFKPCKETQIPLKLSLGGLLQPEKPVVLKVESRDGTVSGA
Description: After preincubation, the incubate is diluted 1:10 and the substrate midazolam is added for the main incubation (15 min). The main incubation is quenched with acetonitrile and the formation of hydroxy-midazolam is quantified via LC/MS-MS. The formation of hydroxy-midazolam from the 30 min preincubation relative to the formation from the 0 min preincubation is used as a readout. Values of less than 100% mean that the substrate midazolam is metabolized to a lower extent upon 30 min preincubation compared to 0 min preincubation. In general low effects upon 30 min preincubation are desired (corresponding to values close to 100%/not different to the values determined with water control).

[4] = Metabolic (microsomal) stability assay, human liver microsomes (HLM); assay type: in vitro ADME; conditions: predicted clearance as percent of liver blood flow, 1 μM
Description: The metabolic degradation of the test compound is assayed at 37° C. with pooled liver microsomes (mouse (MLM), rat (RLM) or human (HLM)). The final incubation volume of 48 μL pertime point contains TRIS buffer (pH 7.5; 0.1 M), magnesium chloride (6.5 mM), microsomal protein (0.5 mg/mL for mouse/rat, 1 mg/mL for human specimens) and the test compound at a final concentration of 1 μM. Following a short preincubation period at 37° C., the reactions are initiated by addition of 12 μL beta-nicotinamide adenine dinucleotide phosphate, reduced form (NADPH, 10 mM) and terminated by transferring an aliquot into solvent after different time points (0, 5, 15, 30, 60 min). Additionally, the NADPH-independent degradation is monitored in incubations without NADPH, terminated at the last time point by addition of acetonitrile. The quenched incubations are pelleted by centrifugation (4,000 rpm, 15 min). An aliquot of the supernatant is assayed by LC-MS/MS to quantify the concentration of parent compound in the individual samples.
In vitro intrinsic clearance (CLint, in vitro) is calculated from the time course of the disappearance of the test drug during the microsomal incubation. Each plot is fitted to the first-order elimination rate constant as C(t)═C0*exp(−ke*t), where C(t) and C0 are the concentration of unchanged test drug at incubation time t and that at preincubation and ke is the disappearance rate constant of the unchanged drug. Subsequently, CLint in vitro (μL min^−1·amount protein) values are converted to predicted CLint,in vivo (mL min^−1 kg^−1) from incubation parameters according to the equation CLint, in vivo=CLint, in vitro×(incubation volume (ml)/amount protein (mg))×(amount protein (mg)/g liver tissue)×(liver weight/body wt.).
For better across species comparison the predicted clearance is expressed as percent of the liver blood flow [% QH] (mL min^−1·kg^−1) in the individual species. In general, high stability (corresponding to low % QH) of the compounds across species is desired.

SMILES | Papp A→B at 90 min, 10 μM [1] [×10⁻⁶ cm/s] | IC50 [2] [nM] | MBI 3A4 [3] [%] | HLM QH [4] [%] | efflux ratio at 90 min, 10 μM [1]
C[C@H](Oc1cc(-c2ccn3ncnc3c2)nc(-c2noc3c2CCC[C@@]32CCCc3sc(N)c(C#N)c32)n1)[C@@H]1CCCN1C [II-104] | – | 24 | 78 | <24 | 4.2
C[C@H](Oc1cc(N2CCC[C@@H](O)C2)nc(-c2noc3c2CCC[C@@]32CCCc3sc(N)c(C#N)c32)n1)[C@@H]1CCCN1C [II-59] | 0.9 | 31 | 80 | <24 | 37.2
C[C@H](Oc1cc(-n2ccnc2)nc(-c2noc3c2CCC[C@@]32CCCc3sc(N)c(C#N)c32)n1)[C@@H]1C[C@@H](F)CN1C [II-120] | 8 | 27 | 71 | 47 | 1.5
C[C@H](Oc1cc(N2CCN(C)C2=O)nc(-c2noc3c2CCC[C@@]32CCCc3sc(N)c(C#N)c32)n1)[C@@H]1CCCN1C [II-75] | 5 | 26 | 57 | 38 | 5
C[C@H](Oc1cc(-n2ccc(-c3ccccn3)n2)nc(-c2noc3c2CCC[C@@]32CCCc3sc(N)c(C#N)c32)n1)[C@@H]1CCCN1C [II-119] | 1 | 8 | 52 | <24 | 1.1
C[C@H](Oc1cc(C2CCOCC2)nc(-c2noc3c2CCC[C@@]32CCCc3sc(N)c(C#N)c32)n1)[C@@H]1CCCN1C [II-76] | 6.5 | 18 | 73 | 31 | 3.7
C[C@H](Oc1cc([C@H]2CCOC2)nc(-c2noc3c2CCC[C@@]32CCCc3sc(N)c(C#N)c32)n1)[C@@H]1CCCN1C [II-88] | 12 | 6 | 77 | 26 | 1.8
C[C@H](Oc1cc(-c2cncnc2)nc(-c2noc3c2CCC[C@@]32CCCc3sc(N)c(C#N)c32)n1)[C@@H]1CCCN1C [II-82] | 2.5 | 82 | 73 | <24 | 9.2
C[C@H](Oc1cc(-c2ccncc2)nc(-c2noc3c2CCC[C@@]32CCCc3sc(N)c(C#N)c32)n1)[C@@H]1CCCN1C [II-78] | – | 37 | 48 | 35 | –

Other lines, results leading:

Papp A→B at 90 min, 10 μM [1] [×10⁻⁶ cm/s] | IC50 [2] [nM] | MBI 3A4 [3] [%] | HLM QH [4] [%] | efflux ratio at 90 min, 10 μM [1] | SMILES
< 4.1 | 331 | 78 | <24 | – | C[C@H](Oc1cc(N2CC[C@H](N(C)C)C2)nc(-c2onc3c2CCC[C@@]32CCCc3sc(N)c(C#N)c32)n1)[C@@H]1CCCN1C [I-11]
0.7 | 38 | 61 | <24 | 43.3 | C[C@H](Oc1cc(N2CCC[C@H](O)C2)nc(-c2noc3c2CCC[C@@]32CCCc3sc(N)c(C#N)c32)n1)[C@@H]1CCCN1C [II-57]
< 10 | 57 | 73 | <24 | – | C[C@H](Oc1cc(-c2ccn(-c3ccccc3)n2)nc(-c2noc3c2CCC[C@@]32CCCc3sc(N)c(C#N)c32)n1)[C@@H]1CCCN1C [II-89]
– | 23 | 74 | <24 | 1.5 | C[C@H](Oc1cc(-c2ccn(C3CC3)n2)nc(-c2noc3c2CCC[C@@]32CCCc3sc(N)c(C#N)c32)n1)[C@@H]1CCCN1C [II-98]
– | 16 | 85 | 34 | 0.9 | COC(=O)c1ccc(-c2cc(O[C@@H](C)[C@@H]3CCCN3C)nc(-c3noc4c3CCC[C@@]43CCCc4sc(N)c(C#N)c43)n2)o1 [II-114]
4.7 | 329 | 75 | <24 | 10.8 | C[C@H](Oc1cc(N2CC[C@H](N(C)C)C2)nc(-c2noc3c2CCC[C@@]32CCCc3sc(N)c(C#N)c32)n1)[C@@H]1CCCN1C [II-49]
6.3 | 13 | 56 | 39 | 3.7 | COCc1cn(-c2cc(O[C@@H](C)[C@@H]3CCCN3C)nc(-c3noc4c3CCC[C@@]43CCCc4sc(N)c(C#N)c43)n2)nn1 [II-121]
13 | 5 | 71 | 48 | 2.1 | C[C@H](Oc1cc([C@@H]2CCOC2)nc(-c2noc3c2CCC[C@@]32CCCc3sc(N)c(C#N)c32)n1)[C@@H]1CCCN1C [II-94]
12 | 25 | 68 | 35 | 0.8 | C[C@H](Oc1cc(-c2cnn(C)n2)nc(-c2noc3c2CCC[C@@]32CCCc3sc(N)c(C#N)c32)n1)[C@@H]1CCCN1C [II-86]
1.1 | 28 | 78 | <24 | 23.6 | C[C@H](Oc1cc(N2CCC(C#N)C2)nc(-c2noc3c2CCC[C@@]32CCCc3sc(N)c(C#N)c32)n1)[C@@H]1CCCN1C (some centres unmarked) [II-99]
15 | 31 | 61 | 44 | 1.1 | Cc1cn(-c2cc(O[C@@H](C)[C@@H]3CCCN3C)nc(-c3noc4c3CCC[C@@]43CCCc4sc(N)c(C#N)c43)n2)nn1 [II-106]
4.1 | 18 | 94 | <24 | 5.4 | C[C@H](Oc1cc(-n2ccnc2)nc(-c2noc3c2CCC[C@@]32CCCc3sc(N)c(C#N)c32)n1)[C@@H]1CCCN1C [II-69]
